{
  "source": "paper PMC9782626",
  "about": "“Copper(II) Complexes of 5–Fluoro–Salicylaldehyde: Synthesis, Characterization, Antioxidant Properties, Interaction with DNA and Serum Albumins” (Molecules, 2022)",
  "biological_target": "T1, human serum albumin (HSA) (Homo sapiens, UniProt P02768)",
  "T1 construct": "purchased Sigma–Aldrich Co",
  "T1 sequence (P02768 25-609)": "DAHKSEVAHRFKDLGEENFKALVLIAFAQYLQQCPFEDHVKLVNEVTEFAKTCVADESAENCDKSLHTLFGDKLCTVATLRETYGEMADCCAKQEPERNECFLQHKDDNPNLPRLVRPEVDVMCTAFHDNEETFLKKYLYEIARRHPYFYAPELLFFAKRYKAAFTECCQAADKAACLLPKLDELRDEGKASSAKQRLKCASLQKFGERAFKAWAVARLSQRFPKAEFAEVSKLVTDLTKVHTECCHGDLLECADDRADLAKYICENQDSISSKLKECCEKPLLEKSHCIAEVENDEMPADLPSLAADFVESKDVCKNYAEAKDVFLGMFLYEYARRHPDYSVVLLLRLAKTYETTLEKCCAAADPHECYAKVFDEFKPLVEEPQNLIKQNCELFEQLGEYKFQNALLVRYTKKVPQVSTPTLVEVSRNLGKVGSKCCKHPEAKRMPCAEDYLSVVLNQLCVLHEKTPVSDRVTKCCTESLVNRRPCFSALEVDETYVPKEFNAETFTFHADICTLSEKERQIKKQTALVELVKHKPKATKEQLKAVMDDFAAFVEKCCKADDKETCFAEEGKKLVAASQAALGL",
  "assay": "Albumin binding by tryptophan fluorescence quenching (HSA)",
  "conditions": "for ΔΙ/Ιο, quenching of the HSA fluorescence: HSA 3 μM, λex 295 nm; for % relative HSA fluorescence emission intensity I/Io remaining (% of initial): final value, pH 7.0; for HSA-binding constant K: Scatchard equation; for HSA-quenching constant kq: from Stern–Volmer plots, τo 10^-8 s",
  "excerpt": "Serum albumins are among the important proteins of the circulatory system. Their main role is to carry drugs and other bioactive small molecules through the bloodstream. BSA and HSA are structurally homologous albumins, having two and one tryptophan residues, respectively. The tryptophan residues of both albumins are responsible for the intense fluorescence emission band with λem,max = 342 nm for BSA and 350 nm for HSA, respectively, when their solutions are excited at 295 nm. […] The inner-filter effect was calculated with Equation (S4) and it was found too low to affect the measurements.\nWhen the compounds were added to a solution of the albumins (3 μM), a significant quenching of the BSA (λem = 342 nm) and HSA (λem = 350 nm) fluorescence emission bands was observed (Figure 7) which was more pronounced in the case of BSA (Table 7 and Figure 8). […] The observed quenching may be ascribed to changes in the tryptophan environment of SA resulting from possible denaturation of their secondary structure, induced by the binding of the complexes to the albumins. […]\nIo =1+ k τ [Q] =1+ K [Q] […]\nS3Albumin -binding studies\nIn order to investigate if the compounds can bind to carrier proteins like serum albumins, we carried out albumin binding study by tryptophan fluorescence quenching experiments using bo vine serum albumin (BSA, 3 μM) in buffer (containing 15 mM trisodium citrate and 150 mM NaCl at pH 7.0). The quenching of the emission intensity of tryptophan residues of BSA at 343 nm was monitored using the co mpounds as que ncher s with increasing concentration [S4]. The fluo rescence emission spectra of the compounds were also recorded with λex = 295 nm. No fluorescence emission band was recorded and thus it was not related to the compounds . The influence of the inner-filter effect [S6] on the measurements wa s evaluated by equation S4.\nWhere Icorr = corrected intensity, Imeas = the measured intensity, c = the concentration of the quencher, d = the cuvette (1 cm), ε (λexc ) and ε(λe m) = the ε of the quencher at the excitation and the emission wavelength, respectively, as calculated from the UV-vis spectra of the […]\nThe Stern-Volmer and Scatchard graphs are used to study the interaction of the compounds with serum albumins. According to Stern-Volmer quenching equation (eq.\nS2), where Io = the initial tryptophan fluorescence intensity of SA, I = the tryptophan fluorescence intensity of SA after the addition of the quencher, kq = the quenching […]\nconstant, KSV = the Stern-Volmer constant, τo = the average lifetime of SA without the quencher, and, tak ing as fluorescence lifet ime (τo) of tryptophan in SA at around 10-8 s [S 4] , KSV (in M -1) can be obtained by the slope of the diagram Io/I versus [compound] (Stern-Volmer plots), and subsequently the quenching (kq, in M -1s-1) may be calculated from eq.\nFrom the Scatchard equation (eq. S5): […]\nwhere n is the number of binding sites per albumin and K is the SA-binding constant (K, in M -1) is calculated from the slope in plots (ΔI/Io)/[complex] versus ΔI/Io and n is given by the ratio of y intercept to the slope [S7].\nS1 Kontogiorgis, C.; Hadjipavlou–Lit ina, D. Biological Evaluat ion of Several Coumarin Derivatives Designed as Possible Anti–inflammatory/Antioxidant Agents. J. Enz. Inhib.\nS2 Ruch, R.J.; Cheng, C.; Klaunig, J.E. Prevention of cytotoxicity and inhibition of intercellular communication by antioxidant catechins isolated from Chinese green tea.\nS3 Wolfe, A.; Shimer, G.; Meehan, T. Polycyclic Aromatic Hydrocarbons Physically Intercalate into Duplex Regions of Denatured DNA. Biochemistry 1987, 26, 6392–6396.\nS4 Lakowicz, J.R. Principles of Fluorescence Spectroscopy , 3rd ed.; Plenum Press: New […]\nS5 Heller, D.P.; Greenstock, C.L. Fluorescence lifetime analysis of DNA intercalated ethid ium bromide and quench ing by free dye. Biophys. Chem.1994,50, 305–312.\nS6 Stella, L.; Capodilupo, A.L.; Bietti, M. A reassessment of the association between […]\nazulene and [60]fullerene. […]",
  "data": [
    {"smiles": "O=Cc1cc(F)ccc1[O-].O=[N+]([O-])[O-].[Cu+2].c1cnc2c(c1)ccc1cccnc12", "note": "[Complex 4, [Cu(5–F–salo)(phen)(NO3)]]", "values": [
      {"measurement": "ΔΙ/Ιο, quenching of the HSA fluorescence", "value": 74.6, "unit": "%"},
      {"measurement": "% relative HSA fluorescence emission intensity I/Io remaining (% of initial)", "value": 25.5, "unit": "%"},
      {"measurement": "HSA-binding constant K", "value": "1.70 (±0.09) × 10^6 M^−1"},
      {"measurement": "HSA-quenching constant kq", "value": "8.63 (±0.33) × 10^12 M^−1 s^−1"}
    ]},
    {"smiles": "O=Cc1cc(F)ccc1[O-].[Cl-].[Cu+2].c1ccc(Nc2ccccn2)nc1", "note": "[Complex 2, [Cu(5–F–salo)(bipyam)Cl]]", "values": [
      {"measurement": "ΔΙ/Ιο, quenching of the HSA fluorescence", "value": 62.7, "unit": "%"},
      {"measurement": "% relative HSA fluorescence emission intensity I/Io remaining (% of initial)", "value": 37.3, "unit": "%"},
      {"measurement": "HSA-binding constant K", "value": "5.09 (±0.29) × 10^5 M^−1"},
      {"measurement": "HSA-quenching constant kq", "value": "6.27 (±0.21) × 10^12 M^−1 s^−1"}
    ]},
    {"smiles": "CO.Cc1ccc2ccc3ccc(C)nc3c2n1.O=Cc1cc(F)ccc1[O-].[Cl-].[Cu+2]", "note": "[Complex 3, [Cu(5–F–salo)(neoc)Cl].CH3OH]", "values": [
      {"measurement": "ΔΙ/Ιο, quenching of the HSA fluorescence", "value": 68.5, "unit": "%"},
      {"measurement": "% relative HSA fluorescence emission intensity I/Io remaining (% of initial)", "value": 31.5, "unit": "%"},
      {"measurement": "HSA-binding constant K", "value": "7.16 (±0.40) × 10^5 M^−1"},
      {"measurement": "HSA-quenching constant kq", "value": "1.25 (±0.05) × 10^13 M^−1 s^−1"}
    ]},
    {"smiles": "O=Cc1cc(F)ccc1[O-].O=[N+]([O-])[O-].[Cu+2].c1ccc(-c2ccccn2)nc1", "note": "[Complex 5, [Cu(5–F–salo)(bipy)(NO3)]]", "values": [
      {"measurement": "ΔΙ/Ιο, quenching of the HSA fluorescence", "value": 63.0, "unit": "%"},
      {"measurement": "HSA-binding constant K", "value": "1.31 (±0.05) × 10^6 M^−1"},
      {"measurement": "HSA-quenching constant kq", "value": "3.01 (±0.10) × 10^12 M^−1 s^−1"}
    ]},
    {"smiles": "O=Cc1cc(F)ccc1[O-].O=Cc1cc(F)ccc1[O-].[Cu+2]", "note": "[Complex 1, [Cu(5–F–salo)2]]", "values": [
      {"measurement": "ΔΙ/Ιο, quenching of the HSA fluorescence", "value": 61.3, "unit": "%"},
      {"measurement": "% relative HSA fluorescence emission intensity I/Io remaining (% of initial)", "value": 38.7, "unit": "%"},
      {"measurement": "HSA-binding constant K", "value": "1.58 (±0.09) × 10^5 M^−1"},
      {"measurement": "HSA-quenching constant kq", "value": "4.37 (±0.18) × 10^12 M^−1 s^−1"}
    ]}
  ]
}
